ChEMBL document CHEMBL3286108, “Novel arylsulfonamide derivatives with 5-HT₆/5-HT₇ receptor antagonism targeting behavioral and psychological symptoms of dementia” (J Med Chem, 2014)
Activity calls are given as the source filed them. The calls are words filed in the database; no cut-off is given here.

Key:
[1] = biological target: T1, 5-hydroxytryptamine receptor 2A (Homo sapiens, UniProt P28223); experiment: Agonist activity at human recombinant 5-HT2A receptor expressed in CHO-K1 cells by luminescence analysis; format: cell-based
T1 sequence (P28223 whole entry): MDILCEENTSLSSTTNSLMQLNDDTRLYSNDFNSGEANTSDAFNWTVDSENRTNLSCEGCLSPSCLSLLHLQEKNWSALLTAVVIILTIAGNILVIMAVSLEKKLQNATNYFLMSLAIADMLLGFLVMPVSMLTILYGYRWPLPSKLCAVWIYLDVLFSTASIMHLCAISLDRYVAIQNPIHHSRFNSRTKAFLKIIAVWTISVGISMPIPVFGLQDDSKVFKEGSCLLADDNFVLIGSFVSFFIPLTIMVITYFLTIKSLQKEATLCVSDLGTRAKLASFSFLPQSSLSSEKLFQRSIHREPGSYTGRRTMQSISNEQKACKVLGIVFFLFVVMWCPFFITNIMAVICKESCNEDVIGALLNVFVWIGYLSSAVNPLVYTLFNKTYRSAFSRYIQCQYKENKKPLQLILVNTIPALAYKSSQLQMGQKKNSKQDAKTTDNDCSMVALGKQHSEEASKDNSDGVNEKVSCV

[2] = biological target: T2, 5-hydroxytryptamine receptor 7 (Homo sapiens, UniProt P34969); experiment: Agonist activity at human 5-HT7 receptor expressed in CHO-K1 cells assessed as cAMP accumulation after 60 mins by TR-FRET immunoassay; format: functional, cell-based
T2 sequence (P34969 whole entry): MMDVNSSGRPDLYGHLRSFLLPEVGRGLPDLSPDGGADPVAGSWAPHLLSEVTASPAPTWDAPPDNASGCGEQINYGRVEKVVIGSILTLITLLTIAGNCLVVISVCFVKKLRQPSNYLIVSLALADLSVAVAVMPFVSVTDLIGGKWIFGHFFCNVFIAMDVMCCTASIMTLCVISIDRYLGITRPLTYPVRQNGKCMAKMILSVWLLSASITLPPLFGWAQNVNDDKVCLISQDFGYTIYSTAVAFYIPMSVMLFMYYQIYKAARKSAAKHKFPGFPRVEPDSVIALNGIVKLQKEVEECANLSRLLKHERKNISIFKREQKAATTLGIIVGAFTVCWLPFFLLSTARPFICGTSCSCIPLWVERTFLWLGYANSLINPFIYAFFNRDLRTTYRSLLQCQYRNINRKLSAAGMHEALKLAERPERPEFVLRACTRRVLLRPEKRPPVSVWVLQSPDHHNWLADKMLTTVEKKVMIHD

D(2) dopamine receptor [3] = biological target: T3, D(2) dopamine receptor (Homo sapiens, UniProt P14416); experiment: Agonist activity at human recombinant D2 receptor expressed in CHO-K1 cells by luminescence analysis; format: cell-based
T3 sequence (P14416 whole entry): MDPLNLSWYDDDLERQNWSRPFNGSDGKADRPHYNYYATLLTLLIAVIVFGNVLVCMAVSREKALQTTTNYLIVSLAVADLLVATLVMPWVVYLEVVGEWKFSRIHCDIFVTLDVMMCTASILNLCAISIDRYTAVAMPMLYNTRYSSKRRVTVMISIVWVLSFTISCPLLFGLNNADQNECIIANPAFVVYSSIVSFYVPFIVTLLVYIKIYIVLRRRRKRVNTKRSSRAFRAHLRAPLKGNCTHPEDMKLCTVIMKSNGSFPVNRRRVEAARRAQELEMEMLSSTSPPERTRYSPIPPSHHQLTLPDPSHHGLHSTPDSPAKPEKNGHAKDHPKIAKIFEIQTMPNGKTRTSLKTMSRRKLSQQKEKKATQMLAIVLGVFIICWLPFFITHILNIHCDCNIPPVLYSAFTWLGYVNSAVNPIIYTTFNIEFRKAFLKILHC

[4] = biological target: T2, 5-hydroxytryptamine receptor 7; experiment: biochemical; format: cell-based, CHO-K1
[5] = biological target: T4, 5-hydroxytryptamine receptor 6 (Homo sapiens, UniProt P50406); experiment: biochemical
T4 sequence (P50406 whole entry): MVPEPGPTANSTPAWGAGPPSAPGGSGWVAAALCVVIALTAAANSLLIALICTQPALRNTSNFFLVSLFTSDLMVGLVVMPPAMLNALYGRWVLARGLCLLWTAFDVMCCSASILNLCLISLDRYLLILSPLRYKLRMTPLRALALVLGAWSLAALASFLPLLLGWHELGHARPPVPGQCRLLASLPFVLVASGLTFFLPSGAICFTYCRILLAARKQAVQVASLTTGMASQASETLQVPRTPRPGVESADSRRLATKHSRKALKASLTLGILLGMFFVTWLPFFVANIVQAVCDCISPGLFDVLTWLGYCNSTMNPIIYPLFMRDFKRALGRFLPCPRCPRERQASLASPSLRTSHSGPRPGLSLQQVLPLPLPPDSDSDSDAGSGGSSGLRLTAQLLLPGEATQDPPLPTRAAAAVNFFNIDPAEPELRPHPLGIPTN

[6] = biological target: T4, 5-hydroxytryptamine receptor 6; experiment: Agonist activity at human recombinant 5-HT6 receptor expressed in CHO-K1 cells by luminescence analysis; format: cell-based
D(2) dopamine receptor [7] = biological target: T3, D(2) dopamine receptor; experiment: biochemical
[8] = biological target: T5, Muscarinic acetylcholine receptor M1 (Homo sapiens) (UniProt P11229); experiment: Displacement of [3H]pirenzepine from human recombinant M1 receptor expressed in CHO cells at 1 uM; format: cell-based
T5 sequence (whole entry): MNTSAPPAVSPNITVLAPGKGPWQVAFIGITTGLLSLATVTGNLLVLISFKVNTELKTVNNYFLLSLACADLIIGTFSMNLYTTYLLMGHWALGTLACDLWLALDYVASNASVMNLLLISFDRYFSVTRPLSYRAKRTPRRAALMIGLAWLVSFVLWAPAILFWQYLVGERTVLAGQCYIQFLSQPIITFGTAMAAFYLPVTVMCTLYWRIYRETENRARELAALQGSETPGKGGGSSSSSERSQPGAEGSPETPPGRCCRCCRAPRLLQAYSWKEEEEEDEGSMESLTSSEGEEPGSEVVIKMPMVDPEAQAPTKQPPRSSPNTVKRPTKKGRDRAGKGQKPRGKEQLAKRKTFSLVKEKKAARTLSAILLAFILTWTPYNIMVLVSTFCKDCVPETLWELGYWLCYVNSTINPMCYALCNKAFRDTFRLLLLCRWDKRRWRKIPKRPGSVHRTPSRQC

[9] = biological target: T4, 5-hydroxytryptamine receptor 6; experiment: Antagonist activity at human recombinant 5-HT6 receptor expressed in CHO-K1 cells assessed as inhibition of serotonin-induced response treated 15 to 30 mins before agonist challenge by luminescence analysis; format: cell-based
[10] = biological target: T2, 5-hydroxytryptamine receptor 7; experiment: Antagonist activity at human 5-HT7 receptor expressed in CHO-K1 cells assessed as inhibition of serotonin-induced cAMP accumulation after 60 mins by TR-FRET immunoassay; format: functional, cell-based
[11] = biological target: T1, 5-hydroxytryptamine receptor 2A; experiment: Antagonist activity at human recombinant 5-HT2A receptor expressed in CHO-K1 cells assessed as inhibition of alpha-methyl serotonin-induced response treated 15 to 30 mins before agonist challenge by luminescence analysis; format: cell-based
[12] = biological target: T1, 5-hydroxytryptamine receptor 2A; experiment: biochemical; format: cell-based, CHO-K1
[13] = biological target: hERG (KCNH2) potassium channel (Homo sapiens, UniProt Q12809); experiment: in vitro; conditions: CHO cells expressing human cloned ERG
Chain of hERG (KCNH2) potassium channel (Q12809 whole entry): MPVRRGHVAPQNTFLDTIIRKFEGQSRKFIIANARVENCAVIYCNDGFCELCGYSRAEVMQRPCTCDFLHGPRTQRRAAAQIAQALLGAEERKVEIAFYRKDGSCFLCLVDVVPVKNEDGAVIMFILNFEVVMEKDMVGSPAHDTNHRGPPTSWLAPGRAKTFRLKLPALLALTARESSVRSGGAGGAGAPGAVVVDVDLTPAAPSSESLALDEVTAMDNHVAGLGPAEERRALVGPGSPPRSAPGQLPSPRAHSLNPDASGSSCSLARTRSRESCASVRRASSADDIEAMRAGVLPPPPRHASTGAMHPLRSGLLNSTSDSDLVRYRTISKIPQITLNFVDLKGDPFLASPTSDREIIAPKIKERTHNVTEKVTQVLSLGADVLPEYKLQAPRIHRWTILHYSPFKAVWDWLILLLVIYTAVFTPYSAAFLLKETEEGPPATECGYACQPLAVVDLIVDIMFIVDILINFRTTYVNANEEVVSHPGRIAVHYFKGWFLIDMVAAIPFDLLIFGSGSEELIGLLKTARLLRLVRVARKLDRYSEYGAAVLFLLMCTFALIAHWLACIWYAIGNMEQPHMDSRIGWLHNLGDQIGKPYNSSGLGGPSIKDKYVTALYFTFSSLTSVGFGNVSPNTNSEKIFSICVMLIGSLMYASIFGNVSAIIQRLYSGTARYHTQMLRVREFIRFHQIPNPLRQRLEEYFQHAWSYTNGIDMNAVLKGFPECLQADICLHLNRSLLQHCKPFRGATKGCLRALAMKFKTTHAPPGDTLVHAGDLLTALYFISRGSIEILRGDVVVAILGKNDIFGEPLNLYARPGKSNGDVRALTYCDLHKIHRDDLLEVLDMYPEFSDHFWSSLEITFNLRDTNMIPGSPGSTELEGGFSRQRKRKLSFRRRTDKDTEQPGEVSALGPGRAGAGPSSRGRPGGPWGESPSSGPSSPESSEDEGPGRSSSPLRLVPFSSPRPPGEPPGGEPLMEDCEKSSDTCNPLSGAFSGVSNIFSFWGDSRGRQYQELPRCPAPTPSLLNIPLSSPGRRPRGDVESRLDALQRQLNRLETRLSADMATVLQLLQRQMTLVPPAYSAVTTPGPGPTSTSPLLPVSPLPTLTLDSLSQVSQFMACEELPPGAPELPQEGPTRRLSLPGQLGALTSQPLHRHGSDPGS

Activity [1] | Activity [2] | Activity (D(2) dopamine receptor [3]) | Ki [4] [nM] | Ki [5] [nM] | Activity [6] | Ki (D(2) dopamine receptor [7]) [nM] | inhibition [8] [%] | Kb [9] [nM] | Kb [10] [nM] | Kb [11] [nM] | Ki [12] [nM] | SMILES | inhibition at 1 µM [13] [%]
inactive | inactive | inactive | 0.6 | 13 | inactive | 16 | 1 | 2.5 | 0.5 | 15 | 3.7 | Cc1cccc(S(=O)(=O)NCCCN2CCC(c3noc4cc(F)ccc34)CC2)c1 | 52
inactive | inactive | inactive | 3.2 | 2.4 | inactive | 1 |  | 8.3 | 1 | 6.5 | 0.6 | O=S(=O)(NCCCCN1CCC(c2noc3cc(F)ccc23)CC1)c1ccc2cc(Cl)ccc2c1 | 
inactive | inactive | inactive | 1.2 | 7.1 | inactive | 14 | -3 | 12 | 2.1 | 23 | 2.2 | O=S(=O)(NCCCN1CCC(c2noc3cc(F)ccc23)CC1)c1ccc(Cl)c(Cl)c1 | 69
inactive | inactive | inactive | 0.7 | 1.8 | inactive | 1.5 | 19 | 22 | 5.6 | 9.5 | 1 | Cc1c(S(=O)(=O)NCCCCN2CCC(c3noc4cc(F)ccc34)CC2)sc2ccc(Cl)cc12 | 0
 |  |  | 180 | 1100 |  | 1300 | 2 |  |  |  | 190 | O=S(=O)(NCCCCN1CCN(c2noc3ccccc23)CC1)c1cc2ccccc2s1 | 14
 |  |  | 2.6 | 17 |  | 46 | -4 |  |  |  | 7.4 | Cc1c(S(=O)(=O)NCCCCN2CCN(c3noc4ccccc34)CC2)sc2ccc(F)cc12 | 29
 |  |  | 900 | 560 |  | 30 | 6 |  |  |  | 63 | O=S(=O)(NCCCN1CCN(c2noc3ccccc23)CC1)c1cc2ccc(Cl)cc2s1 | 7
 |  |  | 1.3 | 250 |  | 9.1 | -8 |  |  |  | 0.7 | O=S(=O)(NCCN1CCC(c2noc3cc(F)ccc23)CC1)c1cccc2ccccc12 | 0
 |  |  | 0.5 | 83 |  | 4 | -9 |  |  |  | 1.7 | O=S(=O)(NCCCN1CCC(c2noc3cc(F)ccc23)CC1)c1cccc2ccccc12 | 27
 |  |  | 1.5 | 40 |  | 2.2 | 0 |  |  |  | 10 | O=S(=O)(NCCCN1CCN(c2nsc3ccccc23)CC1)c1ccc2ccccc2c1 | 13
 |  |  | 120 | 1600 |  | 7200 | -5 |  |  |  | 110 | O=S(=O)(NCCCN1CCN(c2noc3ccccc23)CC1)c1ccc2ccccc2c1 | 29
 |  |  | 10 | 25 |  | 8 | 2 |  |  |  | 2.3 | Cc1c(S(=O)(=O)NCCCN2CCC(c3noc4cc(F)ccc34)CC2)sc2ccc(F)cc12 | 43
 |  |  | 5.1 | 46 |  | 54 | -1 |  |  |  | 11 | O=S(=O)(NCCCCN1CCN(c2noc3ccccc23)CC1)c1cc2ccc(Cl)cc2s1 | 15
 |  |  | 5.9 | 95 |  | 100 | 0 |  |  |  | 13 | O=S(=O)(NCCCCN1CCN(c2noc3ccccc23)CC1)c1cnc2ccccn12 | 13
 |  |  | 5.3 | 53 |  | 39 | -10 |  |  |  | 15 | O=S(=O)(NCCCCN1CCN(c2nsc3ccccc23)CC1)c1ccc(F)c(Cl)c1 | 29
 |  |  | 5.1 | 26 |  | 15 | 27 |  |  |  | 4.9 | O=S(=O)(NCCCCN1CCC(c2noc3cc(F)ccc23)CC1)c1ccc(Cl)c(Cl)c1 | 82

Activity [1] | Activity [2] | Activity (D(2) dopamine receptor [3]) | Ki [4] [nM] | Ki [5] [nM] | Activity [6] | Ki (D(2) dopamine receptor [7]) [nM] | inhibition [8] [%] | Kb [9] [nM] | Kb [10] [nM] | Kb [11] [nM] | Ki [12] [nM] | SMILES | inhibition at 1 µM [13] [%]
 |  |  | 4.6 | 54 |  | 44 | 10 |  |  |  | 6.5 | Cc1c(S(=O)(=O)NCCCCN2CCN(c3nsc4ccccc34)CC2)sc2ccc(F)cc12 | 5
 |  |  | 0.1 | 27 |  | 77 | 6 |  |  |  | 17 | O=S(=O)(NCCCCN1CCN(c2noc3ccccc23)CC1)c1ccc(F)c(Cl)c1 | 45
 |  |  | 4.1 | 140 |  | 46 | 6 |  |  |  | 8.1 | O=S(=O)(NCCCCN1CCN(c2nsc3ccccc23)CC1)c1cnc2ccccn12 | 17
 |  |  | 1.6 | 100 |  | 8.7 | -4 |  |  |  | 0.4 | Cc1cccc(S(=O)(=O)NCCCCN2CCN(c3nsc4ccccc34)CC2)c1 | 17
 |  |  | 4.3 | 13 |  | 22 | 5 |  |  |  | 5.7 | O=S(=O)(NCCCCN1CCC(c2noc3cc(F)ccc23)CC1)c1csc2ccccc12 | 46
 |  |  | 34 | 1100 |  | > 10000 | 0 |  |  |  | 290 | O=S(=O)(NCCCN1CCN(c2noc3ccccc23)CC1)c1ccc(Cl)c(Cl)c1 | 27
 |  |  | 9 | 45 |  | 45 | 2 |  |  |  | 6.5 | O=S(=O)(NCCCCN1CCN(c2nsc3ccccc23)CC1)c1cc2ccc(Cl)cc2s1 | 5
 |  |  | 6.3 | 130 |  | > 1000 | 24 |  |  |  | 9.5 | O=S(=O)(NCCCCN1CCC(c2noc3cc(F)ccc23)CC1)c1cccs1 | 53
 |  |  | 18 | 26 |  | 23 | -7 |  |  |  | 3.1 | O=S(=O)(NCCCN1CCC(c2noc3cc(F)ccc23)CC1)c1ccc2cc(Cl)ccc2c1 | 28
 |  |  | 3.2 | 42 |  | 3.2 | 1 |  |  |  | 5.5 | O=S(=O)(NCCCCN1CCN(c2nsc3ccccc23)CC1)c1cccs1 | 40
 |  |  | 2500 | 2300 |  | > 10000 | 3 |  |  |  | > 10000 | O=S(=O)(NCCCN1CCN(c2noc3ccccc23)CC1)c1ccc2cc(Cl)ccc2c1 | 14
 |  |  | 9.9 | 33 |  | 15 | 0 |  |  |  | 6 | O=S(=O)(NCCCCN1CCN(c2nsc3ccccc23)CC1)c1cc2ccccc2s1 | 11
 |  |  | 1.3 | 23 |  | > 1000 | 1 |  |  |  | 9.1 | O=S(=O)(NCCCN1CCC(c2noc3cc(F)ccc23)CC1)c1cccc2scnc12 | 51
 |  |  | 2 | 27 |  | 27 | 0 |  |  |  | 8.4 | O=S(=O)(NCCCN1CCN(c2nsc3ccccc23)CC1)c1cccc2scnc12 | 16
 |  |  | 0.8 | 32 |  | 1 | -7 |  |  |  | 2.8 | O=S(=O)(NCCCN1CCC(c2noc3cc(F)ccc23)CC1)c1ccc2ccccc2c1 | 63
